Source: patent US8435978B2, “Substituted sulfonamide compounds” (Gruenenthal GmbH, priority 2006, dated 2013)
Counter-ions that a name gives are not always drawn.

Key:
human B1R receptor = target: T1, human B1R receptor (Homo sapiens, UniProt P46663); assay: Functional study on the bradykinin receptor 1 (B1R), FLIPR Ca2+ assay, hB1R cells; format: cell-based; details: agonist Lys-Des-Arg9-bradykinin 0.5 nM, % inhibition compared with the maximum achievable inhibition; for inhibition at 10 µM: CHO-K1, test substance 10 μM, read-out: B1R Antagonism, human [10 μM] % Inhibition; for B1R Antagonism, human [10 μM] % Inhibition: test substance 10 μM, hB1R CHO K1 cells
T1 construct: host or cells: CHO K1 cells (Chinese hamster ovary), stably transfected
T1 sequence (P46663 1-353): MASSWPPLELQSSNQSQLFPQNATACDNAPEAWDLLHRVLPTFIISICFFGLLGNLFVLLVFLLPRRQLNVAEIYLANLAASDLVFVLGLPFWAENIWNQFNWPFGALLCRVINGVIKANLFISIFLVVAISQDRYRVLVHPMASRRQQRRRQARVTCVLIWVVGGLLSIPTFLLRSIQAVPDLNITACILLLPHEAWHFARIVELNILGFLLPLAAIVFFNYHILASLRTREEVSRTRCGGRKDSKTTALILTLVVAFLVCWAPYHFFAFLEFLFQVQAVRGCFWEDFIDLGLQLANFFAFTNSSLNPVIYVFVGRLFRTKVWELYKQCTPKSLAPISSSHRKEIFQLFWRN
Outline: (§1)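 FLIPR Ca2+ read-out (Fluo-4, peak fluorescence) in stably transfected CHO K1 cells. Compounds at 10 μM, then 10 min later agonist challenge: human B1R with Lys-Des-Arg9-bradykinin 0.5 nM, rat B1R with Des-Arg9-bradykinin 100 nM; reported as % activation or % of maximal inhibition.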

B1R receptor of the rat = target: T2, B1R receptor of the rat (Rattus norvegicus, UniProt P97583); assay: Functional study on the bradykinin receptor 1 (B1R), FLIPR Ca2+ assay, rB1R cells; format: cell-based; details: agonist Des-Arg9-bradykinin 100 nM, % inhibition compared with the maximum achievable inhibition; for inhibition at 10 µM: CHO-K1, test substance 10 μM, read-out: B1R Antagonism, rat [10 μM] % Inhibition; for B1R Antagonism, rat [10 μM] % Inhibition: test substance 10 μM, rB1R CHO K1 cells
T2 construct: host or cells: CHO K1 cells (Chinese hamster ovary), stably transfected
T2 sequence (P97583 1-337): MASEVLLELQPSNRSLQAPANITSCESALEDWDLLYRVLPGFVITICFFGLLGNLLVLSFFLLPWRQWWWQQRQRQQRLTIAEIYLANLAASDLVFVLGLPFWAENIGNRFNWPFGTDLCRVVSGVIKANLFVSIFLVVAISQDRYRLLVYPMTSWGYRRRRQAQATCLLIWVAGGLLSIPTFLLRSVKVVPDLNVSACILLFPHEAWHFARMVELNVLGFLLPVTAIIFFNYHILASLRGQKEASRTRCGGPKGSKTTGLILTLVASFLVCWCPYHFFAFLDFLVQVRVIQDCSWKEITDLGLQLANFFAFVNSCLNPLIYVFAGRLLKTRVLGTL
Outline: as §1

| inhibition at 10 µM (human B1R receptor) [%] | inhibition at 10 µM (B1R receptor of the rat) [%] | B1R Antagonism, human [10 μM] % Inhibition (human B1R receptor) [%] | B1R Antagonism, rat [10 μM] % Inhibition (B1R receptor of the rat) [%] | Molecule |
| --- | --- | --- | --- | --- |
| 99.9 | 103 |  |  | COc1cc(C)c(S(=O)(=O)N2CCCCC2COCC(=O)NCCCN2CCCCC2)c(C)c1 (stereo not drawn) [Example 413, 2-((1-(4-methoxy-2,6-dimethylphenylsulfonyl)piperidin-2-yl)methoxy)-N-(3-(piperidin-1-yl)propyl)acetamide] |
| 101 | 99.1 |  |  | Cc1ccc2[nH]c(C3CCN(C(=O)COCC4CCCCN4S(=O)(=O)c4c(Cl)cccc4Cl)CC3)nc2c1 (stereo not drawn) [Example 487, 2-((1-(2,6-dichlorophenylsulfonyl)piperidin-2-yl)methoxy)-1-(4-(5-methyl-1H-benzo[d]imidazol-2-yl)piperidin-1-yl)ethanone] |
|  |  | 98.07 | 95.62 | 2-((1-(2,6-dichlorophenylsulfonyl)piperidin-2-yl)methoxy)-N-(2-(piperidin-1-yl)ethyl)acetamide [Example 440] |
| 85.8 | 99.8 |  |  | COc1cc(C)c(S(=O)(=O)N2CCCC2COCC(=O)N2CCCC2Cc2cccc(C)n2)c(C)c1 (stereo not drawn) [Example 448, 2-((1-(4-methoxy-2,6-dimethylphenylsulfonyl)pyrrolidin-2-yl)methoxy)-1-(2-((6-methylpyridin-2-yl)methyl)pyrrolidin-1-yl)ethanone] |
| 50.2 | 101 |  |  | COc1cc(C)c(S(=O)(=O)N2CCCCC2COCC(=O)NCCn2nccc2C)c(C)c1 (stereo not drawn) [Example 416, 2-((1-(4-methoxy-2,6-dimethylphenylsulfonyl)piperidin-2-yl)methoxy)-N-(2-(5-methyl-1H-pyrazol-1-yl)ethyl)acetamide] |
| 90.1 | 100 |  |  | COc1cc(C)c(S(=O)(=O)N2CCCC2COCC(=O)N2CC[C@@H](N(C)C)C2)c(C)c1 (stereo partly drawn) [Example 476, 1-((R)-3-(dimethylamino)pyrrolidin-1-yl)-2-((1-(4-methoxy-2,6-dimethylphenylsulfonyl)pyrrolidin-2-yl)methoxy)ethanone] |
|  |  | 92.06 | 101.17 | N-(4-(2-(1H-benzo[d]imidazol-2-yl)ethyl)phenyl)-2-((1-(4-methoxy-2,6-dimethylphenylsulfonyl)pyrrolidin-2-yl)methoxy)acetamide [Example 472] |
| 23.8 | 102 |  |  | COc1cc(C)c(S(=O)(=O)N2CCCCC2COCC(=O)NCc2ccccc2N2CCCCC2)c(C)c1 (stereo not drawn) [Example 428, 2-((1-(4-methoxy-2,6-dimethylphenylsulfonyl)piperidin-2-yl)methoxy)-N-(2-(piperidin-1-yl)benzyl)acetamide] |
| 54.1 | 101 |  |  | O=C(COCC1CCCCN1S(=O)(=O)c1c(Cl)cccc1Cl)N1CCN(c2nc3ccccc3s2)CC1 (stereo not drawn) [Example 553, 1-(4-(benzo[d]thiazol-2-yl)piperazin-1-yl)-2-((1-(2,6-dichlorophenylsulfonyl)piperidin-2-yl)methoxy)ethanone] |
| 36.1 | 102 |  |  | COc1cc(C)c(S(=O)(=O)N2CCCCC2COCC(=O)NCc2cccc(N3CCOCC3)c2)c(C)c1 (stereo not drawn) [Example 437, 2-((1-(4-methoxy-2,6-dimethylphenylsulfonyl)piperidin-2-yl)methoxy)-N-(3-morpholinobenzyl)acetamide] |
| 98.3 | 98.9 |  |  | N#CCCN1CCN(C(=O)COCC2CCCCN2S(=O)(=O)c2c(Cl)cccc2Cl)CC1 (stereo not drawn) [Example 506, 3-(4-(2-((1-(2,6-dichlorophenylsulfonyl)piperidin-2-yl)methoxy)acetyl)piperazin-1-yl)propanenitrile] |

The next lines start with the molecule.

| Molecule | inhibition at 10 µM (human B1R receptor) [%] | inhibition at 10 µM (B1R receptor of the rat) [%] | B1R Antagonism, human [10 μM] % Inhibition (human B1R receptor) [%] | B1R Antagonism, rat [10 μM] % Inhibition (B1R receptor of the rat) [%] |
| --- | --- | --- | --- | --- |
| COc1cc(C)c(S(=O)(=O)N2CCCCC2COCC(=O)NCc2ccc(Oc3cnccn3)cc2)c(C)c1 (stereo not drawn) [Example 196, 2-((1-(4-methoxy-2,6-dimethylphenylsulfonyl)piperidin-2-yl)methoxy)-N-(4-(pyrazin-2-yloxy)benzyl)acetamide] | 100 | 98.8 |  |  |
| Cc1c(S(=O)(=O)N2CCCCC2COCC(=O)N2CCN(C3CCN(C)CC3)CC2)sc2ccc(Cl)cc12 (stereo not drawn) [Example 151, 2-((1-(5-chloro-3-methylbenzo[b]thiophen-2-ylsulfonyl)piperidin-2-yl)methoxy)-1-(4-(1-methylpiperidin-4-yl)piperazin-1-yl)ethanone dihydrochloride] | 107 | 103 |  |  |
| CN1CCN(C2CCN(C(=O)COCC3CCCCN3S(=O)(=O)c3c(Cl)cccc3Cl)CC2)CC1 (stereo not drawn) [Example 278, 2-((1-(2,6-dichlorophenylsulfonyl)piperidin-2-yl)methoxy)-1-(4-(4-methylpiperazin-1-yl)piperidin-1-yl)ethanone] | 104 | 96.9 |  |  |
| O=C(COCC1CCCCN1S(=O)(=O)c1c(Cl)cc(Cl)cc1Cl)NCc1ccc(CN2CCCCC2)cc1 (stereo not drawn) [Example 4, N-(4-piperidin-1-ylmethyl-benzyl)-2-[1-(2,4,6-trichloro-phenylsulfonyl)-piperidin-2-ylmethoxy]-acetamide] | 104 | 106 |  |  |
| COc1cc(C)c(S(=O)(=O)N2CCCCC2COCC(=O)NCCN2CCN(Cc3ccccc3)CC2)c(C)c1 (stereo not drawn) [Example 401, N-(2-(4-benzylpiperazin-1-yl)ethyl)-2-((1-(4-methoxy-2,6-dimethylphenylsulfonyl)piperidin-2-yl)methoxy)acetamide] | 90.8 | 95.6 |  |  |
| CN1CCC(N2CCN(C(=O)COCC3CCCCN3S(=O)(=O)c3cccc(Cl)c3Cl)CC2)CC1 (stereo not drawn) [Example 173, 2-((1-(2,3-dichlorophenylsulfonyl)piperidin-2-yl)methoxy)-1-(4-(1-methylpiperidin-4-yl)piperazin-1-yl)ethanone dihydrochloride] | 101 | 101 |  |  |
| CN1CCC(N2CCN(C(=O)COCC3CCCCN3S(=O)(=O)c3ccc(Cl)cc3Cl)CC2)CC1 (stereo not drawn) [Example 120, 2-((1-(2,4-dichlorophenylsulfonyl)piperidin-2-yl)methoxy)-1-(4-(1-methylpiperidin-4-yl)piperazin-1-yl)ethanone] | 103 | 103 |  |  |
| O=C(COCC1CCCN1S(=O)(=O)c1c(Cl)cc(Cl)cc1Cl)N1CCC(N2CCCC2)CC1 (stereo not drawn) [Example 296, 1-(4-(pyrrolidin-1-yl)piperidin-1-yl)-2-((1-(2,4,6-trichlorophenylsulfonyl)pyrrolidin-2-yl)methoxy)ethanone] | 106 | 99.3 |  |  |
| Cc1ccc(C)n1CCN1CCN(C(=O)COCC2CCCN2S(=O)(=O)c2c(Cl)cccc2Cl)CC1 (stereo not drawn) [Example 287, 2-((1-(2,6-dichlorophenylsulfonyl)pyrrolidin-2-yl)methoxy)-1-(4-(2-(2,5-dimethyl-1H-pyrrol-1-yl)ethyl)piperazin-1-yl)ethanone] | 101 | 89.2 |  |  |
| COc1cc(C)c(S(=O)(=O)N2CCCCC2COCC(=O)N2CCC(c3cccnc3)C2)c(C)c1 (stereo not drawn) [Example 237, 2-((1-(4-methoxy-2,6-dimethylphenylsulfonyl)piperidin-2-yl)methoxy)-1-(3-(pyridin-3-yl)pyrrolidin-1-yl)ethanone] | 99.7 | 99.5 |  |  |
| Cc1cc(C)c(S(=O)(=O)N2Cc3ccccc3CC2COCC(=O)N2CCN(C3CCN(C)CC3)CC2)c(C)c1 (stereo not drawn) [Example 5, 1-[4-(1-methyl-piperidin-4-yl)-piperazin-1-yl]-2-[2-(2,4,6-trimethyl-phenylsulfonyl)-1,2,3,4-tetrahydro-isoquinolin-3-ylmethoxy]-ethanone] | 103 | 103 |  |  |
| COc1cc(C)c(S(=O)(=O)N2CCCCC2COCC(=O)NCc2ccc(CN(C)C)cc2)c(C)c1 (stereo not drawn) [Example 11, N-(4-dimethylaminomethyl-benzyl)-2-[1-(4-methoxy-2,6-dimethyl-phenylsulfonyl)-piperidin-2-ylmethoxy]-acetamide] | 99.6 | 106 |  |  |
| O=C(COCC1CCCN1S(=O)(=O)c1c(Cl)cccc1Cl)N1CCC(N2CCCCC2)CC1 (stereo not drawn) [Example 337, 1-(1,4′-bipiperidin-1′-yl)-2-((1-(2,6-dichlorophenylsulfonyl)pyrrolidin-2-yl)methoxy)ethanone] | 104 | 104 |  |  |
